According to ChEMBL document CHEMBL5126633, “Developing HDAC4-Selective Protein Degraders To Investigate the Role of HDAC4 in Huntington's Disease Pathology” (J Med Chem, 2022):
Converted amounts (≈) assume the structure as drawn. The source made the active and inactive calls. No cut-off for these calls is given here.

Assays:
Histone deacetylase 4 = Histone deacetylase 4 (Homo sapiens, UniProt P56524); assay: Inhibition of recombinant HDAC4 (unknown origin) using Boc-Lys(TFA)-AMC as substrate by fluorescence based plate reader assay
Histone deacetylase 4, sequence (P56524 whole entry): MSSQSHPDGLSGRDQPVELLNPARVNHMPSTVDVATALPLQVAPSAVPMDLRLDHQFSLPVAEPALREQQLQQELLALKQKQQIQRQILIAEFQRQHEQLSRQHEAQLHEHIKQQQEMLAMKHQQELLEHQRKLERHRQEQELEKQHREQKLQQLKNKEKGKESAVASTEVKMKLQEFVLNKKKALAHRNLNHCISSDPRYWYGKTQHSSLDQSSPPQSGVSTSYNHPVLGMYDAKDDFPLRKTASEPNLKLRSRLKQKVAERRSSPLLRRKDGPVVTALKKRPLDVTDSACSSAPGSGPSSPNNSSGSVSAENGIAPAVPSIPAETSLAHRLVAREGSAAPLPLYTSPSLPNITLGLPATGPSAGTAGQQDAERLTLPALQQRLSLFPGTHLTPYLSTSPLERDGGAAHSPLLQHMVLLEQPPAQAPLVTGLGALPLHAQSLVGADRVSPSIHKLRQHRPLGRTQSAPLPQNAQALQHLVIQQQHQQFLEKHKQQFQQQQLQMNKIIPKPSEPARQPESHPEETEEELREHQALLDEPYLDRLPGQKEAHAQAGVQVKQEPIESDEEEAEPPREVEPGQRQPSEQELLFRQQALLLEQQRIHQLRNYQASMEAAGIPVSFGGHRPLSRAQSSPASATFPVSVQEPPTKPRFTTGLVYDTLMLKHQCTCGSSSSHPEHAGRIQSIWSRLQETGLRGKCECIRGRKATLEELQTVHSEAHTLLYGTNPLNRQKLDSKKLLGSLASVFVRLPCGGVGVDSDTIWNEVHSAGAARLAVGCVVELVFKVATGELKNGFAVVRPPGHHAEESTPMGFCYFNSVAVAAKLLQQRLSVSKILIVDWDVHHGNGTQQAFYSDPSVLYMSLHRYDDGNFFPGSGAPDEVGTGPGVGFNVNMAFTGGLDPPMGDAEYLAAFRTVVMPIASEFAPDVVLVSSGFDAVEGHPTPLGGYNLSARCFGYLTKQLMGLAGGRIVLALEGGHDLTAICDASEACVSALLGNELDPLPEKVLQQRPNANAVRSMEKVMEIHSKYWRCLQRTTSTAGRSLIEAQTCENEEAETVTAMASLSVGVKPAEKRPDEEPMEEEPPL

[1] = Inhibition of class 2a HDAC in human Jurkat E6.1 cells using Boc-Lys(TFA)-AMC as substrate incubated for 24 hrs by plate reader assay; assay type: cell-based; settings: Jurkat E6.1, 24 h
[2] = molecular target: Class 1 histone deacetylase (Homo sapiens, UniProt Q13547+O15379+Q92769+Q9BY41); assay: Inhibition of class 1 HDAC in human Jurkat E6.1 cells using Boc-Lys(Ac)-AMC as substrate incubated for 24 hrs by plate reader assay; assay type: cell-based
[3] = molecular target: T1, von Hippel-Lindau disease tumor suppressor/Histone deacetylase 4 (Homo sapiens, UniProt P40337+P56524); assay: Protac activity at VHL/HDAC4 in human Jurkat E6.1 cells assessed as induction of HDAC4 degradation incubated for 24 hrs by ELISA-based MSD electrochemiluminescence assay; assay type: cell-based
T1 sequence (P56524 whole entry): as above
T1 sequence (P40337 whole entry): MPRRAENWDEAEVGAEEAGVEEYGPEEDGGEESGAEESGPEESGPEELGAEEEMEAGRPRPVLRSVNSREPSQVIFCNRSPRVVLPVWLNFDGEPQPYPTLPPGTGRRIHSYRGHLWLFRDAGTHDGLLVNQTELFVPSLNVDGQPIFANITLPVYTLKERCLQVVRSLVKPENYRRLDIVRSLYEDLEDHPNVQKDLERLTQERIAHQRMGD

[4] = molecular target: T2, von Hippel-Lindau disease tumor suppressor/Histone deacetylase 4 (Homo sapiens) (UniProt P56524+P40337); assay: Protac activity at VHL/HDAC4 in human Jurkat E6.1 cells assessed as induction of HDAC4 degradation by measuring maximum degradation at 10 uM incubated for 24 hrs by ELISA-based MSD electrochemiluminescence assay relative to control; assay type: cell-based
T2 sequence (P40337 whole entry, looked up): as the sequence (P40337 whole entry) above
T2 sequence (P56524 whole entry, looked up): as the sequence (P56524 whole entry) above

Histone deacetylase 5 = Histone deacetylase 5 (Homo sapiens, UniProt Q9UQL6); assay: Inhibition of recombinant HDAC5 (unknown origin) using Boc-Lys(TFA)-AMC as substrate by fluorescence based plate reader assay
Histone deacetylase 5, sequence (Q9UQL6 whole entry): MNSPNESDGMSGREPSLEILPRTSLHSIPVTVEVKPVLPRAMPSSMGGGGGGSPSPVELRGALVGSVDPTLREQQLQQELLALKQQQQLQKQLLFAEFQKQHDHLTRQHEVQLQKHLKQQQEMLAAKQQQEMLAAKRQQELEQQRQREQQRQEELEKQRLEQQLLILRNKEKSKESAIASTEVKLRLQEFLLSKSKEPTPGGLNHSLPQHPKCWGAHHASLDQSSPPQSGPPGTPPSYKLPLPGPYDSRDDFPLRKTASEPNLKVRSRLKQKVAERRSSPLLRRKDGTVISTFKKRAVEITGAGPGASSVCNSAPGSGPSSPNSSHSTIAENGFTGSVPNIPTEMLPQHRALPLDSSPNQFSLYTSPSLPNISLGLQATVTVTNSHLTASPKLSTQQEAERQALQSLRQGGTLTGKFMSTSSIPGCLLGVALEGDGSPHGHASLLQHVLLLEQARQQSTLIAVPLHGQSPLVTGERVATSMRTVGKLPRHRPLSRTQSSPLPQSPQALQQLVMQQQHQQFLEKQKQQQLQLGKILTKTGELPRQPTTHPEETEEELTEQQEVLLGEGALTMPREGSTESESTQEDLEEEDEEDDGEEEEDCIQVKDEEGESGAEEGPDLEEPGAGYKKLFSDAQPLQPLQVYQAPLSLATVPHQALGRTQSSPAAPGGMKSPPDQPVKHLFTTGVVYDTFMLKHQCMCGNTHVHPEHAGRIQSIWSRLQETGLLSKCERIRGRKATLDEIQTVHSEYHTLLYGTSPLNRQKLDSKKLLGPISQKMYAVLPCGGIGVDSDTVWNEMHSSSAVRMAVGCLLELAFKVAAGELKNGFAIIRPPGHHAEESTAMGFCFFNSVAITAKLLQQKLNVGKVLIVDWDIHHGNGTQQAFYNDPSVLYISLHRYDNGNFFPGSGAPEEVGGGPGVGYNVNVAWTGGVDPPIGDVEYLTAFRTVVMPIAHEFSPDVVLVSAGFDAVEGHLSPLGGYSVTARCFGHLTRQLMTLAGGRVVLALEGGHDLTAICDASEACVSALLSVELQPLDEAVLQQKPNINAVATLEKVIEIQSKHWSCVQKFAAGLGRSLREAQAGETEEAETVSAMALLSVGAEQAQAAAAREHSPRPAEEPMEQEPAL

Histone deacetylase 7 = molecular target: T3, Histone deacetylase 7 (Homo sapiens, UniProt Q8WUI4); assay: Inhibition of recombinant HDAC7 (unknown origin) using Boc-Lys(TFA)-AMC as substrate by fluorescence based plate reader assay
T3 sequence (Q8WUI4 whole entry): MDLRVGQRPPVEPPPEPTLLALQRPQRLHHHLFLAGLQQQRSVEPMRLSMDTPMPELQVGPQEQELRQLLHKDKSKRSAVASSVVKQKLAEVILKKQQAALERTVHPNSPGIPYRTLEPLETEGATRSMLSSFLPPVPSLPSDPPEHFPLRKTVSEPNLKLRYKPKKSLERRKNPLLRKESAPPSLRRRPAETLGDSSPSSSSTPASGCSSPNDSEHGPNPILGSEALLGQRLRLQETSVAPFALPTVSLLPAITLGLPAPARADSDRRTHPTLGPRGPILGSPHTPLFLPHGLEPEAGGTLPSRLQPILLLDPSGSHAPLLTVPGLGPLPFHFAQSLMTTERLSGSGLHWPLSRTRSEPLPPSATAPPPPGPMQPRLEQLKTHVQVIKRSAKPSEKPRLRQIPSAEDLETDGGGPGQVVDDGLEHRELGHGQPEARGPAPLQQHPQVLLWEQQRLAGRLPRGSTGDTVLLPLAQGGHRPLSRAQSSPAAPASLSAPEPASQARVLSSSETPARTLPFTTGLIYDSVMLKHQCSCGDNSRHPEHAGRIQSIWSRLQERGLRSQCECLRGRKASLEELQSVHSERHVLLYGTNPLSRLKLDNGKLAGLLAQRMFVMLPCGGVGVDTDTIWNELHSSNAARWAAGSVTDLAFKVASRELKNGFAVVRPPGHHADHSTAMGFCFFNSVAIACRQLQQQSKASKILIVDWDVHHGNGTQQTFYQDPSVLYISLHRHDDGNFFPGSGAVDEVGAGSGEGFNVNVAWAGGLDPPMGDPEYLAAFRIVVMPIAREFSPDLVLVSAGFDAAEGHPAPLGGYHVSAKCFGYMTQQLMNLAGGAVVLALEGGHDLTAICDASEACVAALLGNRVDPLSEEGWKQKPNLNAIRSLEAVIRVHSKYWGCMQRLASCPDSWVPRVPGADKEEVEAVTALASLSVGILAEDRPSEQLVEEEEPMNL

[5] = Kinetic aqueous solubility of the compound in PBS buffer at pH 7.4 incubated for 2 hrs under shaking condition by LC-UV analysis; assay type: physicochemical; settings: read-out: Kinetic_solubility
[6] = molecular target: T1, von Hippel-Lindau disease tumor suppressor/Histone deacetylase 4; assay: Protac activity at VHL/HDAC4 in human Jurkat E6.1 cells assessed as induction of HDAC4 degradation incubated for 24 hrs by immunoblotting analysis; assay type: cell-based
Homo sapiens [7] = species: Homo sapiens; assay: Selectivity ratio of IC50 for inhibition of HDAC4 (unknown origin) to IC50 for inhibition of HDAC5 (unknown origin)
Homo sapiens [8] = species: Homo sapiens; assay: Selectivity ratio of IC50 for inhibition of HDAC4 (unknown origin) to IC50 for inhibition of HDAC7 (unknown origin)
Homo sapiens [9] = species: Homo sapiens; assay: Selectivity ratio of IC50 for inhibition of HDAC4 (unknown origin) to IC50 for inhibition of HDAC9 (unknown origin)
[10] = molecular target: T2, von Hippel-Lindau disease tumor suppressor/Histone deacetylase 4 (Homo sapiens); assay: Protac activity at VHL/HDAC4 in human Jurkat E6.1 cells assessed as induction of HDAC4 degradation at 1 uM incubated for 6 hrs by immunoblotting analysis; assay type: cell-based
Histone deacetylase 9 = Histone deacetylase 9 (Homo sapiens, UniProt Q9UKV0)
Histone deacetylase 9, sequence (Q9UKV0 whole entry): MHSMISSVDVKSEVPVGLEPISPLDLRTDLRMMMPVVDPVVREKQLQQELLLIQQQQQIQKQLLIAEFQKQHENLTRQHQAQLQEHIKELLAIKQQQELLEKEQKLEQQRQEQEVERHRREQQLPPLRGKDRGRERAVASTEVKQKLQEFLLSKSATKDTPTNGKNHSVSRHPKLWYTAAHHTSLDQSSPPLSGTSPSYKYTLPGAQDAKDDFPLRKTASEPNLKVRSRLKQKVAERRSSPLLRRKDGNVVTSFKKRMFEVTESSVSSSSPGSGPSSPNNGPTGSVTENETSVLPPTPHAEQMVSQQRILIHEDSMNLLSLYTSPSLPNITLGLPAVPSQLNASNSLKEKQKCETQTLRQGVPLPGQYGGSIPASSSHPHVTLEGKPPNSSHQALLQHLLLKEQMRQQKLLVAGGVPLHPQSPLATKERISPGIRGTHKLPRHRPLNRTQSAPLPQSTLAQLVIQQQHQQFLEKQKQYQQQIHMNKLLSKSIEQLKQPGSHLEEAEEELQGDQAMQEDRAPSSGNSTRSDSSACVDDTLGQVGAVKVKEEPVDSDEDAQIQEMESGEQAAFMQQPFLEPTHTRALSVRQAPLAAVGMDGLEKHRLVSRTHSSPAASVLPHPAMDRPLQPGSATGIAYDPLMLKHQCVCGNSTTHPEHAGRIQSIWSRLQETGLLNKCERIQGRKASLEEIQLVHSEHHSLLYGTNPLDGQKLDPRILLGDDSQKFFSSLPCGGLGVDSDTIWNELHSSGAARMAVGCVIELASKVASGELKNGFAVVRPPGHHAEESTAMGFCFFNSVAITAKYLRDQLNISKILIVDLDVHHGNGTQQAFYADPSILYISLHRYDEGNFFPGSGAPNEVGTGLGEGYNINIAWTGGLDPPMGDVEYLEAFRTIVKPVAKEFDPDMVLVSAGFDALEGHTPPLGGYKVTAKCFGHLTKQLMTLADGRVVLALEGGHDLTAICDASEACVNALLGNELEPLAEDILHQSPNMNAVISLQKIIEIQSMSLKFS

[11] = molecular target: T1, von Hippel-Lindau disease tumor suppressor/Histone deacetylase 4; assay: Protac activity at VHL/HDAC4 in human Jurkat E6.1 cells assessed as induction of HDAC4 degradation incubated for 24 hrs in absence of elacridar by Western blot analysis; assay type: cell-based
[12] = molecular target: T1, von Hippel-Lindau disease tumor suppressor/Histone deacetylase 4; assay: Protac activity at VHL/HDAC4 in human Jurkat E6.1 cells assessed as induction of HDAC4 degradation preincubated with elacridar for 1 hr followed by compound addition and measured after 24 hrs by Western blot analysis; assay type: cell-based
Vhl/Hdac4 [13] = molecular target: T4, Vhl/Hdac4 (Mus musculus, UniProt P40338+Q6NZM9); assay: Protac activity at VHL/HDAC4 in Q175 KI mouse cortical neuron assessed as induction of HDAC4 degradation incubated for 4 to 72 hrs in absence of elacridar by MSD assay; assay type: cell-based
T4 sequence (Q6NZM9 whole entry): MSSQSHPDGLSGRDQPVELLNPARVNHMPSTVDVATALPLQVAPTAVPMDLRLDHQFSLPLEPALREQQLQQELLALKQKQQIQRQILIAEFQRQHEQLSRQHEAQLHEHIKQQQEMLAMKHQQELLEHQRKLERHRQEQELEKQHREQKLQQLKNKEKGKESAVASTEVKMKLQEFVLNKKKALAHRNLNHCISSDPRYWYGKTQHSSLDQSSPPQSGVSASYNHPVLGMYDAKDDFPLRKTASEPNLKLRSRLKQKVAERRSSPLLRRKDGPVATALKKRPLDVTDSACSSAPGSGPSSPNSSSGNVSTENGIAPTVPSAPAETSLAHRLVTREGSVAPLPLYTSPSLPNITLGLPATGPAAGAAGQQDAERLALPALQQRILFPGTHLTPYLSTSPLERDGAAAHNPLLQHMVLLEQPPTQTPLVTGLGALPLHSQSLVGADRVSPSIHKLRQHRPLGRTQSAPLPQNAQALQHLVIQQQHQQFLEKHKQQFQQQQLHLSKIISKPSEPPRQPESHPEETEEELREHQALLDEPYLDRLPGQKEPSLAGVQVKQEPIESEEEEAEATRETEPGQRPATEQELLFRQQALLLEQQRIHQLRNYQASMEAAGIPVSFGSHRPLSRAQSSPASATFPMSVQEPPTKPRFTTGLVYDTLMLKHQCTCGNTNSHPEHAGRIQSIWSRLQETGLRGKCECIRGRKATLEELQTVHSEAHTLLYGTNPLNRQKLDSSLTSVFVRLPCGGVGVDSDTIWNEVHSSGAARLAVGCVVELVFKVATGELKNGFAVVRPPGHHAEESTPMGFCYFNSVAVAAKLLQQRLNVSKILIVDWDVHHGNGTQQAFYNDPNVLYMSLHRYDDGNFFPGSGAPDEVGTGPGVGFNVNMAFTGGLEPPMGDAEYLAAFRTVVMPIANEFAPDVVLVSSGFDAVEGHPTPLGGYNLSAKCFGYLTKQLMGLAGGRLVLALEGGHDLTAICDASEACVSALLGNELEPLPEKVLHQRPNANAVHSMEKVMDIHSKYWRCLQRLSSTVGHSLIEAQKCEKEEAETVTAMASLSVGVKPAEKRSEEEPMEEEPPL
T4 sequence (P40338 whole entry): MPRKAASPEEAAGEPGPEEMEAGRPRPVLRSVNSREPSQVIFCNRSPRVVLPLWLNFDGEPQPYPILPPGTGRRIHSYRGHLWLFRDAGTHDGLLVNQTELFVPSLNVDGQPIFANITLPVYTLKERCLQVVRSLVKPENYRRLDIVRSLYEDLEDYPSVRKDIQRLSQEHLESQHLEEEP

[14] = Selectivity ratio of DC50 for protac activity at VHL/HDAC4 in mouse Neuro2a cells to DC50 for protac activity at VHL/HDAC4 in human Jurkat E6.1 cells; assay type: cell-based
[15] = Apparent permeability in MDCK cells; assay type: ADME, cell-based, Canis lupus familiaris; settings: dog
[16] = Apparent permeability in MDCK-MDR1 cells; assay type: ADME, cell-based, Canis lupus familiaris; settings: dog
[17] = Apparent permeability in MDCK-BCRP cells; assay type: ADME, cell-based, Canis lupus familiaris; settings: dog
[18] = Efflux ratio of apparent permeability basolateral to apical over apical to basolateral side in MDCK cells; assay type: ADME, cell-based, Canis lupus familiaris; settings: dog
[19] = Efflux ratio of apparent permeability basolateral to apical over apical to basolateral side in MDCK-MDR1 cells; assay type: ADME, cell-based, Canis lupus familiaris; settings: dog
[20] = Efflux ratio of apparent permeability basolateral to apical over apical to basolateral side in MDCK-BCRP cells; assay type: ADME, cell-based, Canis lupus familiaris; settings: dog
Vhl/Hdac4 [21] = molecular target: T4, Vhl/Hdac4; assay: Protac activity at VHL/HDAC4 in mouse Neuro2a cells assessed as induction of HDAC4 degradation incubated for 24 hrs in absence of elacridar by MSD assay
Vhl/Hdac4 [22] = molecular target: T4, Vhl/Hdac4; assay: Protac activity at VHL/HDAC4 in mouse Neuro2a cells assessed as induction of HDAC4 degradation preincubated with elacridar for 1 hr followed by compound addition and measured after 24 hrs by MSD assay

SMILES | IC50 (Histone deacetylase 4) [nM] | IC50 [1] [nM] | IC50 [2] [nM] | EC50 [3] [nM] | Emax [4] [%] | IC50 (Histone deacetylase 5) [nM] | IC50 (Histone deacetylase 7) [nM] | solubility kinetic at 2 h [5] [µM] | IC50 (Histone deacetylase 9) [nM] | also measured
CCCN(CCCCOCCOCCOCCOCCOCC(=O)N[C@@H](C(=O)N1C[C@@H](O)C[C@@H]1C(=O)NCc1ccc(-c2scnc2C)cc1)C(C)(C)C)C[C@@H](C)NC(=O)c1ccc(-c2noc(C(F)(F)F)n2)cc1 | 150 | 180 | > 5000 | > 10000 | 50 | – | – | – | – | –
Cc1ncsc1-c1ccc(CNC(=O)[C@@H]2C[C@@H](O)CN2C(=O)[C@@H](NC(=O)COCCOCCOCCOCCOCC(F)(F)c2cnc(-c3ccc(C(C(=O)NO)c4ccccc4F)cc3)nc2)C(C)(C)C)cc1 (some centres undefined) | 1100 | 120 | > 5000 | 37 | 83 | 260 | 250 | 4.8 (≈ 5.04 µg/mL) | 420 | EC50 [6]: 11 nM; Ratio IC50 (Homo sapiens [7]): 3; Ratio IC50 (Homo sapiens [8]): 3; Ratio IC50 (Homo sapiens [9]): 3; Activity [10]: Active
CCCN(CCC)C[C@@H](C)NC(=O)c1ccc(-c2noc(C(F)(F)F)n2)cc1 | – | – | – | – | – | – | – | 145 (≈ 57.8 µg/mL) | – | –
Cc1ncsc1-c1ccc(CNC(=O)[C@@H]2C[C@@H](O)CN2C(=O)[C@@H](NC(=O)COCCOCCOCCOCC(F)(F)c2cnc(-c3ccc(C(C(=O)NO)c4ccccc4F)cc3)nc2)C(C)(C)C)cc1 (some centres undefined) | 560 | 160 | > 5000 | 48 | 82 | 310 | 210 | 5 (≈ 5.03 µg/mL) | 340 | –
CCCN(CCCCOCCOCCOCCOCCOCC(=O)N[C@H](C(=O)N1C[C@H](O)C[C@H]1C(=O)NCc1ccc(-c2scnc2C)cc1)C(C)(C)C)C[C@@H](C)NC(=O)c1ccc(-c2noc(C(F)(F)F)n2)cc1 | 92 | 6 | > 5000 | 4 | 78 | 150 | 150 | 144 (≈ 155 µg/mL) | 94 | EC50 [6]: 2 nM; EC50 [11]: 1.7 nM; EC50 [12]: 1.6 nM; EC50 (Vhl/Hdac4 [13]): 1.1 nM; Ratio EC50 [14]: 20; Papp [15]: 2.1 ×10⁻⁶ cm/s; Papp [16]: 2.6 ×10⁻⁶ cm/s; Papp [17]: 1.4 ×10⁻⁶ cm/s; Ratio [18]: 13; Ratio [19]: 7; Ratio [20]: 5; EC50 (Vhl/Hdac4 [21]): 81 nM; EC50 (Vhl/Hdac4 [22]): 2.3 nM
Cc1ncsc1-c1ccc(CNC(=O)[C@@H]2C[C@H](O)CN2C(=O)[C@@H](NC(=O)COCCOCCOCCOCCOCC(F)(F)c2cnc(-c3ccc(C(C(=O)NO)c4ccccc4F)cc3)nc2)C(C)(C)C)cc1 (some centres undefined) | 230 | 130 | > 5000 | > 10000 | 20 | – | – | 4.8 (≈ 5.04 µg/mL) | – | –
CCCN(CCCCOCCOCCOCC(=O)N[C@H](C(=O)N1C[C@H](O)C[C@H]1C(=O)NCc1ccc(-c2scnc2C)cc1)C(C)(C)C)C[C@@H](C)NC(=O)c1ccc(-c2noc(C(F)(F)F)n2)cc1 | 90 | 33 | 4300 | 3 | 72 | 140 | 220 | 100 (≈ 98.7 µg/mL) | 130 | –
Cc1ncsc1-c1ccc(CNC(=O)[C@@H]2C[C@@H](O)CN2C(=O)[C@@H](NC(=O)COCCOCCOCC(F)(F)c2cnc(-c3ccc(C(C(=O)NO)c4ccccc4F)cc3)nc2)C(C)(C)C)cc1 (mixture of isomers) | 410 | 150 | > 5000 | 28 | 77 | 230 | 210 | 5.2 | 290 | –
CCCN(CCCCOCCOCCOCCOCC(=O)N[C@H](C(=O)N1C[C@H](O)C[C@H]1C(=O)NCc1ccc(-c2scnc2C)cc1)C(C)(C)C)C[C@@H](C)NC(=O)c1ccc(-c2noc(C(F)(F)F)n2)cc1 | 100 | 2 | 2800 | 4 | 85 | 250 | 230 | 132 (≈ 136 µg/mL) | 220 | –
